Literature values as cited in patent US7767208B2, “Noninvasive vascular therapy” (Light Sciences Oncology, Inc., priority 1999, dated 2010).

Conditions: systemically administered sensitizer in clinical use; for sensitize the skin for: duration of skin sensitization

Molecule | sensitize the skin for | photosensitivity lasting (skin photosensitivity)
CCOC(=O)C1=Cc2c3nc(cc4nc(cc5[n-]c(cc6[n-]c2c(C)c6CC)c(C)c5CC)C(C)=C4CC)[C@@H](C)[C@]13CC.[Cl-].[Cl-].[Sn] (racemic) [Purlytin] | several weeks | –
Oc1cccc(-c2c3nc(c(-c4cccc(O)c4)c4ccc([nH]4)c(-c4cccc(O)c4)c4nc(c(-c5cccc(O)c5)c5ccc2[nH]5)CC4)C=C3)c1 [Foscan] | several weeks | –
sodium porfimer [Photophrin] | – | up to 6 weeks
